What was measured:
[1] = target: mouse MsrB2 (Mus musculus, UniProt Q78J03); test: Reduction of methylsulfinyl compounds by mouse MsrB2 (HPLC/GC analysis); format: biochemical; settings: in the presence of DTT
Description: (§1) The isothiocyanate group in R,S-sulforaphane reacts with sulfhydryls to form conjugated compounds. First, the compound was treated with excess DTT (which has two free sulfhydryl groups) to conjugate the isothiocyanate group of R,S-sulforaphane or S-sulforaphane with the sulfhydryl group of DTT and the resulting adducts were then used as substrates for mouse MsrA and mouse MsrB2. The reduction of the DTT-sulforaphane adduct was analyzed using HPLC analysis of the adduct with buffer (as control; FIG. 12A), mouse MsrB2 (FIG. 12B), and mouse MsrA (FIG. 12C). The arrows indicate the migration of the DTT-erucin adduct. […] FIG. 13 illustrates the HPLC analysis of the DTT-R-sulforaphane adduct incubated with buffer (as control) (FIG. 13A), mouse MsrA (FIG. 13B), and mouse MsrB2 (FIG. 13C). Again, the arrows show the migration of the DTT-erucin adduct.
(§2) Mesoridazine, which has a mild effect on treating schizophrenia, was examined to determine its reduction by yeast fRMsr, mouse MsrB2, and mouse MsrA (FIG. 14). The peak of m/z 387.6 corresponds to the molecular weight of mesoridazine and the peak of m/z 371.6 corresponds to the molecular weight of thioridazine. FIG. 14B details the HPLC analysis of mesoridazine incubated with mouse MsrB2 and DTT. FIG. 14C provides the HPLC analysis of mesoridazine incubated with yeast fRMsr and DTT. FIG. 14D illustrates the specific activities of various Msrs for the reduction of mesoridazine (left to right): mouse MsrA in the presence of DTT as a reductant, mouse MsrA in the presence of the thioredoxin reducing system, mouse MsrB2 in the presence of DTT, and yeast fRMsr in the presence of DTT.
(§3) The reduction of triclabendazole sulfoxide was examined. This compound has been used to treat liver fluke, Fasciola hepatica and Fasciola gigantica, in sheep, goat, and cattle as a form of triclabendazole. Triclabendazole can be metabolized to several different forms including triclabendazole sulfoxide, which is an oxidized form of methylsulfide group, in biological systems. FIG. 15A provides an HPLC analysis of triclabendazole sulfoxide incubated with mouse MsrA and DTT. The peak of m/z 375.2 and 377.2 correspond to the molecular weight of triclabendazole sulfoxide and the peak of m/z 359.2 and 361.2 correspond to the molecular weight of triclabendazole. FIG. 15B illustrates an HPLC analysis of triclabendazole sulfoxide incubated with mouse MsrB2 and DTT. FIG. 15C details an HPLC analysis of triclabendazole sulfoxide incubated with yeast fRMsr and DTT. FIG. 15D illustrates the specific activities of various Msrs for the reduction of triclabendazole sulfoxide (left to right): mouse MsrA in the presence of DTT as a reductant, mouse MsrA in the presence of the thioredoxin reducing system, mouse MsrB2 in the presence of DTT, and yeast fRMsr in the presence of DTT.
Another methylsulfinyl-containing drug, sulmazole, was tested as a substrate for Msrs. This drug is pharmacologically active as a cardiotonic agent and is a phosphodiesterase inhibitor. FIG. 16A details an HPLC analysis of sulmazole incubated with mouse MsrA and DTT. The peak of m/z 288.3 corresponds to the molecular weight of sulmazole and the peak of m/z 272.3 corresponds to the molecular weight of reduced form of sulmazole. FIG. 16B illustrates an HPLC analysis of sulmazole incubated with mouse MsrB2 and DTT. FIG. 16C provides an HPLC analysis of sulmazole incubated with yeast fRMsr and DTT. […]

[2] = target: T1, mouse MsrA (Mus musculus, UniProt Q9D6Y7); test: Reduction of methylsulfinyl compounds by mouse MsrA (HPLC/GC analysis); format: biochemical; settings: DTT as a reductant
T1 sequence (Q9D6Y7 21-233): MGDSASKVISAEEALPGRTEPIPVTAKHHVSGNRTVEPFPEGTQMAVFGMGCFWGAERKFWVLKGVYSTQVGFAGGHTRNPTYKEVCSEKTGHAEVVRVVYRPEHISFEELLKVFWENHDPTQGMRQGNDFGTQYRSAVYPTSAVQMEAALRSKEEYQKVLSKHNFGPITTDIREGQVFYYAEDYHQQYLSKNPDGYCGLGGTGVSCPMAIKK
Description: as §1, §2, §3
Another methylsulfinyl-containing drug, sulmazole, was tested as a substrate for Msrs. This drug is pharmacologically active as a cardiotonic agent and is a phosphodiesterase inhibitor. FIG. 16A details an HPLC analysis of sulmazole incubated with mouse MsrA and DTT. The peak of m/z 288.3 corresponds to the molecular weight of sulmazole and the peak of m/z 272.3 corresponds to the molecular weight of reduced form of sulmazole. FIG. 16B illustrates an HPLC analysis of sulmazole incubated with mouse MsrB2 and DTT. FIG. 16C provides an HPLC analysis of sulmazole incubated with yeast fRMsr and DTT. FIG. 16D details the specific activities of various Msrs for the reduction of sulmazole (left to right): mouse MsrA in the presence of DTT as a reductant, mouse MsrA in the presence of the thioredoxin reducing system, mouse MsrB2 in the presence of DTT, and yeast fRMsr in the presence of DTT.
DMSO, which is used as a preservative for stem cells, solvent for drugs, and a drug itself with anti-inflammatory and free radical scavenging properties, was studied for its reduction by Msrs. FIG. 17A details a GC analysis of DMSO incubated with mouse MsrA and DTT. […]

[3] = test system: MsrA-knockdown SK-Hep1 cells; test: Growth of MsrA-knockdown SK-Hep1 cells on Met and Met sulfoxide media; format: cell-based, human; settings: 0.1 mM, 96 hours
Description: Proliferation Assay—Cell growth was quantified using colorimetric MTS assay (Promega). Cells in regular DMEM medium were plated in 96-well plates at 5×10^3 cells/well, washed with PBS, and specialized DMEM media were added that contained Met, Met-SO, Met-RO, or Met-RSO 24 hours after plating. To assay for cell proliferation, a tetrazolium compound [3-(4,5-dimethylthiazol-2-yl)-5-(3-carboxymethoxyphenyl)-2-(4-sulfophenyl)-2H-tetrazolium, inner salt; MTS] and an electron coupling reagent (phenazine methosulfate; PMS) were mixed according to the manufacturer's protocol and then 20 μL of the mixture were added to 100 μL of phenol red-excluded media that further replaced cell culture media. After 90 minutes of incubation at 37° C. in the atmosphere of 5% CO2, cell proliferation was measured at indicated time periods from 0 to 96 hours at 450 nm in a plate reader. Direct counting of viable cells using 0.2% trypan blue was done in 6-well plates. Knockdown of MsrA in SK-Hep1 cells by siRNA—Double stranded siRNAs (Dharmacon) for targeting human MsrA mRNA were used to knockdown this gene in SK-Hep1 cells. Cells were transfected with siRNA by using DharmaFECT™ Transfection Reagent (Dharmacon) according to the manufacturer's protocol. Proliferation of these cells was assayed 60 hours after transfection in comparison with control transfected cells.

[4] = test system: CBS; test: Western blot analysis of CBS in SK-Hep1 cells grown on Met and Met sulfoxide media; format: cell-based, human; settings: SK-Hep1 cells, 0.1 mM
Description: Analysis of SK-Hep1 and fRMsr-transfected SK-Hep1 cells—SK-Hep1 and fRMsr-transfected SK-Hep1 cells were plated in 6-well plates at 7.5×10^4 cells/well in regular DMEM medium. The medium was changed to Met-free DMEM supplemented with either Met or individual Met sulfoxides at 24 hours after plating. Cells were then collected every 24 hours until 96 hours. Protein concentration was measured by the Bradford assay and the samples were probed by standard immunoblot assays with polyclonal MsrA (kindly provided by Bertrand Friguet), cystathionine beta synthase (CBS) (kindly provided by Ruma Banerjee), and activating transcription factor 3 (ATF3) (Santa Cruz Biotechnology) antibodies.

[5] = test system: selenoproteins; test: 75Se metabolic labeling of SK-Hep1 cells grown on Met and Met sulfoxide media; format: cell-based, human; settings: 0.1 mM of each amino acid
Description: ^75 Se Metabolic labeling—SK-Hep1 cells were plated in 6-well plates at 7.5×10^4 cells/well in 1.5 mL of regular DMEM medium. After 24 hours, cells were washed with PBS and the medium was changed to modified DMEM media containing Met, Met-SO, Met-RO, or Met-RSO (0.1 mM of each amino acid). 0.01 mCi of freshly neutralized [^75Se]selenious acid (specific activity 1,000 Ci/mmol, University of Missouri Research Reactor) was added in each well at 48 hours after changing the medium and cells were incubated at 37° C. for 24 hours in 5% CO2 atmosphere, followed by harvesting the cells. Cell extracts (30 μg of total protein) were electrophoresed on 10% Bis-Tris gels and transferred onto PVDF membranes (Invitrogen). The ^75Se radioactivity pattern was visualized by using a PhosphorImager (GE Health Care).

[6] = test system: SK-Hep1 cells; test: Growth and morphology of SK-Hep1 cells in Met-free DMEM supplemented with Met or Met sulfoxides (MTS proliferation assay, microscopy); format: cell-based, human; settings: Met-free DMEM supplemented with 0.1 mM of the compound
Description: Cell culture—SK-Hep1 (ATCC: HTB-52™) and fRMsr-transfected SK-Hep1 cells were cultured in DMEM or Met-free DMEM (GIBCO) media, supplemented with 0.1 mM Met, 0.1 mM Met-RO, 0.1 mM Met-SO, or 0.1 mM Met-RSO. […] Thus, 0.1 mM Met sulfoxides were used in the experiments described below. Cell culture experiments, with the exception of a proliferation assay, were carried out in 6-well plates, and cells were maintained at 37° C. in a 5% CO2 atmosphere. Proliferation Assay—Cell growth was quantified using colorimetric MTS assay (Promega). Cells in regular DMEM medium were plated in 96-well plates at 5×10^3 cells/well, washed with PBS, and specialized DMEM media were added that contained Met, Met-SO, Met-RO, or Met-RSO 24 hours after plating. To assay for cell proliferation, a tetrazolium compound [3-(4,5-dimethylthiazol-2-yl)-5-(3-carboxymethoxyphenyl)-2-(4-sulfophenyl)-2H-tetrazolium, inner salt; MTS] and an electron coupling reagent (phenazine methosulfate; PMS) were mixed according to the manufacturer's protocol and then 20 μL of the mixture were added to 100 μL of phenol red-excluded media that further replaced cell culture media. After 90 minutes of incubation at 37° C. in the atmosphere of 5% CO2, cell proliferation was measured at indicated time periods from 0 to 96 hours at 450 nm in a plate reader. Direct counting of viable cells using 0.2% trypan blue was done in 6-well plates. Microscopy—A Nikon TE-300 Widefield Microscope was used to prepare images of SK-Hep1 cells grown on different Met and Met sulfoxide media. Microscopy analyses were carried out in the University of Nebraska Microscopy Core Facility.

Chain of mouse MsrB2 (Q78J03 43-175): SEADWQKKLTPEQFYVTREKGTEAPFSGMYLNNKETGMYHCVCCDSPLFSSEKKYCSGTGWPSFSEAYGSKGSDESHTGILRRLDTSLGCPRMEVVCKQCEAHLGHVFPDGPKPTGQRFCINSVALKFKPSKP

Row | Reduction by mouse MsrB2 [1] | Reduction by mouse MsrA [2] | Structure (SMILES) | Growth of MsrA-deficient cells [3] | Expression of CBS [4] | Selenoprotein patterns (75Se labeling) [5] | Growth of SK-Hep1 cells [6]
1 | cannot be reduced | cannot be reduced | C[S@@+]([O-])CCCCNC(=S)SCC(O)C(O)CS (some centres unmarked) [DTT-R-sulforaphane adduct] | – | – | – | –
2 | not by mouse MsrB2 | can be reduced | C[S@+]([O-])CCCCNC(=S)SCC(O)C(O)CS (some centres unmarked) [DTT-S-sulforaphane adduct] | – | – | – | –
3 | – | – | CSCC[C@H](N)C(=O)O [Met, methionine] | still supported their growth | maintained stable CBS levels | No difference was observed | grew best

— patent US20110178072A1, “STEREOSPECIFICITY OF METHYLSULFINYL REDUCTION” (priority 2008, published 2011)
